Experimental data taken from ChEMBL document CHEMBL1909046, “DrugMatrix in vitro pharmacology data”.

Key:
[1] = target: Beta-3 adrenergic receptor (Homo sapiens, UniProt P13945); assay: DRUGMATRIX: Adrenergic beta3 radioligand binding (ligand: [125I] Cyanopindolol); format: cell membranes, HEK293, Membrane; details: hek293; Not Active = under 50% inhibition at 10 µM
[2] = DRUGMATRIX: ATPase, Na+/K+ enzyme inhibition (substrate: ATP); format: tissue-based, Sus scrofa, Heart; details: Not Active = under 50% inhibition at 10 µM
[3] = target: T1, Cholecystokinin receptor type A (Homo sapiens, UniProt P32238); format: cell membranes, Membrane; details: 1321-n1; note: in other assays of this panel Not Active means under 50% inhibition at 10 µM
T1 sequence (P32238 whole entry): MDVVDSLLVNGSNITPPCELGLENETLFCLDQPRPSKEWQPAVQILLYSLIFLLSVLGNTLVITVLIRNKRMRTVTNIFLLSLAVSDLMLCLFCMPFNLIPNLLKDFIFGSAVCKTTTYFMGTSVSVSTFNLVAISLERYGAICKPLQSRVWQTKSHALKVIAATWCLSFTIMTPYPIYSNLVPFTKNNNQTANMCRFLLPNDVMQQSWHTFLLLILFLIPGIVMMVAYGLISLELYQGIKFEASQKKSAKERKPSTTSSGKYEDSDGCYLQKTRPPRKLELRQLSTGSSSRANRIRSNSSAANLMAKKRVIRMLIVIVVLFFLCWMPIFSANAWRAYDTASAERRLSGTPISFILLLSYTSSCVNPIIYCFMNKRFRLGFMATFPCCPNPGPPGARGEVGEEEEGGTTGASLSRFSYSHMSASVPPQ

[4] = target: Sodium-dependent dopamine transporter (Homo sapiens, UniProt Q01959); assay: DRUGMATRIX: Dopamine Transporter radioligand binding (ligand: [125I] RTI-55); format: cell membranes, CHO-K1, Membrane; details: cho-k1; Not Active = under 50% inhibition at 10 µM
Sequence of Sodium-dependent dopamine transporter (Q01959 whole entry): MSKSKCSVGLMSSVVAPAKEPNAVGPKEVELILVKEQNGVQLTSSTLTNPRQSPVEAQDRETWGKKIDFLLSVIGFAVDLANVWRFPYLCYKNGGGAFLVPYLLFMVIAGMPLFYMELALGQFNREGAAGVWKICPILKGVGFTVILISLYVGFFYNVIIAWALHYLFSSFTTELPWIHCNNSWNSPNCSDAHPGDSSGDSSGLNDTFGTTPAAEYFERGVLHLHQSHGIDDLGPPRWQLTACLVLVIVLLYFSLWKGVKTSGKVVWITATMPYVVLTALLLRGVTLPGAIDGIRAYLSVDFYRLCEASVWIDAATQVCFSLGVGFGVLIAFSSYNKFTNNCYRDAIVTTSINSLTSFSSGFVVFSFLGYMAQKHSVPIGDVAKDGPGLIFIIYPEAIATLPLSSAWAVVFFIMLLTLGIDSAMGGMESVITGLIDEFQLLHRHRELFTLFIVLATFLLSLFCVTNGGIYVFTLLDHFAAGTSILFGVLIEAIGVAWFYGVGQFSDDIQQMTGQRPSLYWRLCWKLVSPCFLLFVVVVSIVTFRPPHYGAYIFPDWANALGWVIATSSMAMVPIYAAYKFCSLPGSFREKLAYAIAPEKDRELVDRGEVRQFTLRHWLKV

[5] = target: T2, 3-hydroxy-3-methylglutaryl-coenzyme A reductase (Homo sapiens, UniProt P04035); parameters: species or system Escherichia coli;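 note: enzyme inhibition assay of HMG-CoA reductase using radiolabeled [14C]HMG-CoA as substrate; in other assays of this panel Not Active means under 50% inhibition at 10 µM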
T2 sequence (P04035 whole entry): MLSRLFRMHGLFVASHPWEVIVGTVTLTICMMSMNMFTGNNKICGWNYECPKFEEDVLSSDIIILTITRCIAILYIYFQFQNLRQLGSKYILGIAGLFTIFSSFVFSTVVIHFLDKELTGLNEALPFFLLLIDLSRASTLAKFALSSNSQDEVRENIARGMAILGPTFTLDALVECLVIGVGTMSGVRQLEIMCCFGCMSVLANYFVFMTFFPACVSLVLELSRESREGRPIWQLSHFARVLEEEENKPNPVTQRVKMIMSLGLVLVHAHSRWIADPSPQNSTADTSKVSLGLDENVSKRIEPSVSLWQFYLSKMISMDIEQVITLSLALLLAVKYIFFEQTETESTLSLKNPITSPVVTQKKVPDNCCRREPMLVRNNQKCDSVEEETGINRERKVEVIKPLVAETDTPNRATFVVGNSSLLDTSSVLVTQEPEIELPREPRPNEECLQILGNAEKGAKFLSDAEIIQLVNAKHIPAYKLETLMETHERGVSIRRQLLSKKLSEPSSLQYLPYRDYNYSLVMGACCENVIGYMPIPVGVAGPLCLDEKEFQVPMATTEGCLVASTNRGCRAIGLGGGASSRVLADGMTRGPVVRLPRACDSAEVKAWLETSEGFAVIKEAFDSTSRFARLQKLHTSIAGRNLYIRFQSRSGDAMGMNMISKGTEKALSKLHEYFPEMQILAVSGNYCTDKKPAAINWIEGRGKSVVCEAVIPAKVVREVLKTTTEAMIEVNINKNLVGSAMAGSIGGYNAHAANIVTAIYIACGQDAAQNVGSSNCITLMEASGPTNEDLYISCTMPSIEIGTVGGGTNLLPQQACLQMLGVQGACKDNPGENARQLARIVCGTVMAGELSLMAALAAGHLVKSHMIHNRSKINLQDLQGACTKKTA

[6] = target: Kappa-type opioid receptor (Homo sapiens, UniProt P41145); assay: DRUGMATRIX: Opiate kappa (OP2, KOP) radioligand binding (ligand: [3H] Diprenorphine); format: cell membranes, HEK293, Membrane; details: hek293; Not Active = under 50% inhibition at 10 µM
Sequence of Kappa-type opioid receptor (P41145 whole entry): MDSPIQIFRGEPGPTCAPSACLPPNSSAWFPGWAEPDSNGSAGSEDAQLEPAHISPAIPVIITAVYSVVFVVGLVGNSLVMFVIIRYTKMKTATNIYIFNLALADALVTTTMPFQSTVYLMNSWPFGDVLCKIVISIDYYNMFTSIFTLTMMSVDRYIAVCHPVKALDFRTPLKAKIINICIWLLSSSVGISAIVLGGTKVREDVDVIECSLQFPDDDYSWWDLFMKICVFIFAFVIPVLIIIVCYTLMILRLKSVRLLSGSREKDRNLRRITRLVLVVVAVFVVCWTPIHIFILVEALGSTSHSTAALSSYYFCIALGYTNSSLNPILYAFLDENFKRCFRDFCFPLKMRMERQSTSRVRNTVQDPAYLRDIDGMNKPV

[7] = target: T3, Caspase-1 (Homo sapiens, UniProt P29466); parameters: species or system Escherichia coli;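 note: Caspase-1 enzyme inhibition assay with a peptide substrate; in other assays of this panel Not Active means under 50% inhibition at 10 µM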
T3 sequence (P29466 whole entry): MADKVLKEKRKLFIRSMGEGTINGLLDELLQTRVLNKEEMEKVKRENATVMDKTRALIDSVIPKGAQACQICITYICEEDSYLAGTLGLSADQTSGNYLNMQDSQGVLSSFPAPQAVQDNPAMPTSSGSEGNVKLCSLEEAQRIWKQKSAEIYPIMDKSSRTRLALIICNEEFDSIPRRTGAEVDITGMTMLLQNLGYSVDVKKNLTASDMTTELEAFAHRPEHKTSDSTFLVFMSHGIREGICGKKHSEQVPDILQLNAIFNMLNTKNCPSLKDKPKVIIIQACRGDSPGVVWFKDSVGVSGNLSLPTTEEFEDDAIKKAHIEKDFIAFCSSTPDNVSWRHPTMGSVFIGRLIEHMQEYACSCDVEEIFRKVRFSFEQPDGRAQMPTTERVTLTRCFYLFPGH

Sequence of Beta-3 adrenergic receptor (P13945 whole entry): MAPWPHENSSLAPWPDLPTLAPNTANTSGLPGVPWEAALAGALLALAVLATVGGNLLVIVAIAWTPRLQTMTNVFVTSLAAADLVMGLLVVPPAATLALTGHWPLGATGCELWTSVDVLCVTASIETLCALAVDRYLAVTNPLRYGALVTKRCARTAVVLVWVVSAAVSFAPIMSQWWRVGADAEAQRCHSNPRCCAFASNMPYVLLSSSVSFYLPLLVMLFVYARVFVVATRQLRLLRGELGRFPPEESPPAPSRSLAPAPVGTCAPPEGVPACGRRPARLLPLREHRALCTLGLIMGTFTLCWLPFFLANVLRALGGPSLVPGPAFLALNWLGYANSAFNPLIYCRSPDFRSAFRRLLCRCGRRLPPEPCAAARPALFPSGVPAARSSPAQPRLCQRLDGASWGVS

C=CC[C@@H]1/C=C(\C)C[C@H](C)C[C@H](OC)[C@H]2O[C@@](O)(C(=O)C(=O)N3CCCC[C@H]3C(=O)O[C@H](/C(C)=C/[C@@H]3CC[C@@H](O)[C@H](OC)C3)[C@H](C)[C@@H](O)CC1=O)[C@H](C)C[C@@H]2OC [TACROLIMUS ANHYDROUS]
Not Active: IC50 [1] | IC50 [2] | Ki [2] | IC50 [3] | IC50 [4] | IC50 [5] | IC50 [6] | IC50 [7]

CC(C)(C)NCC(O)c1cc(O)cc(O)c1 (stereo not drawn) [TERBUTALINE]
Not Active: IC50 [1] | IC50 [2] | Ki [2] | IC50 [3] | IC50 [4] | IC50 [5] | IC50 [6] | IC50 [7]

Cc1cc(NS(=O)(=O)c2ccc(N)cc2)no1 [SULFAMETHOXAZOLE]
Not Active: IC50 [1] | IC50 [2] | Ki [2] | IC50 [3] | IC50 [4] | IC50 [5] | IC50 [6] | IC50 [7]

COC(=O)c1ccc(O)cc1 [METHYLPARABEN]
Not Active: IC50 [1] | IC50 [2] | Ki [2] | IC50 [3] | IC50 [4] | IC50 [5] | IC50 [6] | IC50 [7]

Cc1ncc([N+](=O)[O-])n1CC(C)O (stereo not drawn) [SECNIDAZOLE]
Not Active: IC50 [1] | IC50 [2] | Ki [2] | IC50 [3] | IC50 [4] | IC50 [5] | IC50 [6] | IC50 [7]

CCC[C@@H]1C[C@@H](C(=O)N[C@@H]([C@H]2O[C@H](SC)[C@H](O)[C@@H](O)[C@H]2O)[C@@H](C)O)N(C)C1 [LINCOMYCIN]
Not Active: IC50 [1] | IC50 [2] | Ki [2] | IC50 [3] | IC50 [4] | IC50 [5] | IC50 [6] | IC50 [7]
